Experimental data published in US12384751B2, “Allosteric activators of the ALPHA1A-adrenergic receptor” (The Cleveland Clinic Foundation, priority 2019, dated 2025).

Tests used:
α1B-AR = molecular target: T1, α1B-AR (Homo sapiens, UniProt P35368); test: cAMP assay at α1B-AR; assay type: cell-based
T1 construct: expressed in transfected cells; host or cells: Rat-1 fibroblast cells
T1 sequence (P35368 1-520): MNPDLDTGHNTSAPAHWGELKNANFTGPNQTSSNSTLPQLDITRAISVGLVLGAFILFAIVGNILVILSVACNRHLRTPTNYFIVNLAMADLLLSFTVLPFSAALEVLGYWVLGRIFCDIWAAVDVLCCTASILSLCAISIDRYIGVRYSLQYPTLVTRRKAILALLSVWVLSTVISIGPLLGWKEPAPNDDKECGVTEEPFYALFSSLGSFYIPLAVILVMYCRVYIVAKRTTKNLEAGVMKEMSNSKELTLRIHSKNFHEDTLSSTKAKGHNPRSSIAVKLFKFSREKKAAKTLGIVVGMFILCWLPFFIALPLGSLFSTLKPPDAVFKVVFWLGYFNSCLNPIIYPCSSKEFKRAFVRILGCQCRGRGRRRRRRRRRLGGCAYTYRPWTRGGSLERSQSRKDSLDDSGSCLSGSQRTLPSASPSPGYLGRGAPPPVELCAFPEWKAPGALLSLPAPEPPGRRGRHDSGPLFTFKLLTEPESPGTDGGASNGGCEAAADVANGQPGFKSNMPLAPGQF
Method: cAMP assay: Cells expressing a single α1-adrenergic receptor subtype are washed and re-plated into 24-well plates in DMEM media without serum at approximately 2.4×10^4 cells/well. Cells are allowed to rest till the next day in a CO2 incubator at 37° C. The cells are washed twice with DMEM (no serum), then 1 ml of DMEM is added to each well. Cells are pre-incubated for 45 mins-1 hour at 37° C. in a CO2 incubator with 10 uM propranolol, followed by 100 uM IBMX for 30 minutes. Final DMSO concentration is at 0.05%. Norepinephrine or epinephrine is added in a dose response (1 dose per well) in addition to one of the Compounds 1-10 at one concentration (i.e. 10^−5M). Cells are incubated for another 30 mins at 37° C. in a CO2 incubator. The reaction is concluded by aspirating the media and adding 0.1M HCL. The mixture is incubated for 20 mins at room temperature. The cells are scraped and suspended until homogenous. The mixture is centrifuged at 1000 g for 10 mins and the supernatant assayed the same day according to a manufacturer's cAMP kit (Cayman Select Cyclic AMP EIA kit #501040).

α1A-AR = molecular target: T2, α1A-AR (Homo sapiens, UniProt P35348); test: Effect of compound on binding affinity of norepinephrine, epinephrine or other ligands at α1A-AR; parameters: expressed in transfected cells; host or cells: Rat-1 fibroblast cells
T2 sequence (P35348 1-466): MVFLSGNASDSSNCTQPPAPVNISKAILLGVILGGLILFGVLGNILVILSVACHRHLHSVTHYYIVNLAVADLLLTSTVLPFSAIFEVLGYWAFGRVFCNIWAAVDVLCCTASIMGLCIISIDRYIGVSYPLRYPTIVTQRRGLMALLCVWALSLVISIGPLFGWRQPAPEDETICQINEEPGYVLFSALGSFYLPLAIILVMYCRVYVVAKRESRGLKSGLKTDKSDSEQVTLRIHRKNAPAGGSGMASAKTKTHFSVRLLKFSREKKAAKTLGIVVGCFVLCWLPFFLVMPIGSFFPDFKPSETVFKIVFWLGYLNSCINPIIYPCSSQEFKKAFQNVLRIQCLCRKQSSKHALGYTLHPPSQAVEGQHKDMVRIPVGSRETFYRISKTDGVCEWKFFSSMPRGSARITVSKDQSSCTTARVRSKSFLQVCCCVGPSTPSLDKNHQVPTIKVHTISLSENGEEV
Method: Competition binding assays: These compounds were characterized for their ligand binding properties at the α1-AR subtypes. The binding affinities of Compounds 1-10 were determined in a series of competition-binding experiments with the α1-AR-selective antagonist [^125I]HEAT as the radioligand. Assays were performed in duplicate in HEM buffer, in a total assay volume of 1000 μl. Radioligand binding assays are composed of 5 ug of membranes, harvested from Rat-1 fibroblast cells expressing only one of the alpha1-AR subtypes, HEM buffer containing GTP (composed of 20 mM HEPES, pH 7.4, 1.4 mM EGTA, 12.5 mM MgCl2, pH to 7.4), 0.5 mM GTP, 35-80 pM^125I-HEAT, and various doses of norepinephrine or epinephrine and incubated with shaking at 25° C. for 1-2 hours. The above conditions will convert all the conformations of the receptor into a single low affinity site. To show both high and low affinity sites of the receptor (typically seen with GPCR agonists), the GTP is removed from the binding buffer. Nonspecific binding was determined experimentally in the presence of 10^−4 M phentolamine. Unbound radioactivity was separated from membrane-bound radioactivity by filtration through Whatman GF/C filter paper. Filters are washed five times with 5 ml of cold HEM buffer containing 0.5 mMGTP (if added to the binding buffer but not if it was not added to the binding buffer). Bound radioactivity remaining on the filters was counted on an ICN gamma counter operating at 79.8% efficiency. Data are analyzed using Graphpad Prism.
To determine the effects of compounds 1-10 on the binding affinity of norepinephrine or epinephrine, the competition binding assay was repeated as above with one dose of each individual compound (i.e. 10^−5M) added to each concentration point. Data are normalized to the norepinephrine or epinephrine binding curve alone without the addition of the compound to measure its effect on binding.

CC(C)Cc1c(OCC2=NCCN2)cccc1N(C)S(C)(=O)=O [Compound 3, N-[3-(4,5-Dihydro-1H-imidazol-2-ylmethoxy)-2-isobutyl-phenyl]-N-methyl-methanesulfonamide]
effect on norepinephrine cAMP response at the α1B-AR (α1B-AR): no effect
effect on binding affinity of epinephrine at the α1A-AR (α1A-AR; 10^−5M (highest dose tested)): no effect
effect on binding affinity of norepinephrine at the α1A-AR (α1A-AR; fixed dose of compound, 10^−5M to 10^−9M): increasing the affinity of norepinephrine in a dose-specific manner
